Measured values: patent US7476764B2, “Phenylcarboxyamides as beta-secretase inhibitors” (Bristol-Myers Squibb Company, priority 2005, dated 2009)
Counter-ions that a name gives are not always drawn. Like-named read-outs stand apart in the source and are kept apart here.

Target: T1, BACE1 enzyme (Homo sapiens, UniProt P56817)
T1 construct: The HEK293-9B.A1 cell line, which overexpresses the BACE1 enzyme, was derived from HEK293 cells; endogenous in cells; washed 48,000 x g pellet of the cell homogenate
T1 sequence (P56817 46-501): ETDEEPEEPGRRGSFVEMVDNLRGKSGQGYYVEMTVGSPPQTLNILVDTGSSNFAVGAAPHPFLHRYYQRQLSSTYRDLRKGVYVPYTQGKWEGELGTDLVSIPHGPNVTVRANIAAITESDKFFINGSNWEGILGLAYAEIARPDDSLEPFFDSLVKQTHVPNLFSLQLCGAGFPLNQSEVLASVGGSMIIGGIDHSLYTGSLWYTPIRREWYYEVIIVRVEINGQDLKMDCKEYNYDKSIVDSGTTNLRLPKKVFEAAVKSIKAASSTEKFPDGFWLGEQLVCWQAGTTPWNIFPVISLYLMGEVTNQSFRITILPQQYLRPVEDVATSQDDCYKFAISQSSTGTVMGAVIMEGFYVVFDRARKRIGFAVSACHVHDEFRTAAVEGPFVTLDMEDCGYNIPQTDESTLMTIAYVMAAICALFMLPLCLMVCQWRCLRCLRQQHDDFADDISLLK
Test: Radioligand displacement assay with a radiolabeled BACE inhibitor on HEK293-9B.A1 cell homogenate
Type: binding
Description: Radioligand displacement assays with a radiolabeled BACE inhibitor (WO 2004 013098, compound 3, where the methoxy group is substituted for C(^3H)3) were carried out using standard methods (Keen, M. (1999) in Receptor Binding Techniques (Walker, J. M. ed) p. 106 Humana Press, Totowa, N.J.). The HEK293-9B.A1 cell line, which overexpresses the BACE1 enzyme, was derived from HEK293 cells (Simmons, N. L. (1990) A cultured human renal epitheloid cell line responsive to vasoactive intestinal peptide. Exp. Physiol. 75:309-19.) by RAGE™ (Harrington, J. J. et al. (2001) Creation of genome-wide protein expression libraries using random activation of gene expression. Nat. Biotechnol. 19:440-5; U.S. Pat. Nos. 6,410,266 and 6,361,972). T225 flask cultures of HEK293-9B.A1 were grown to 80% confluency in DMEM supplemented with 2 mM L-glutamine, 10 μg/ml penicillin, 10 μg/ml streptomycin, 3 μg/ml puromycin, 100 nM methotrexate, and 10% fetal bovine serum (Invitrogen, Carlsbad, Calif.), harvested, and resuspended at 2×10^8 cells per 10 ml of lysis buffer consisting of 50 mM HEPES pH 7.0 containing a protease inhibitor cocktail of AEBSF 104 μM, aprotinin 80 nM, leupeptin 2 μM, bestatin 4 μM, pepstatin A 1.5 μM, and E-64 1.4 μM (0.1% of protease inhibitor cocktail P8340, Sigma-Aldrich, St. Louis, Mo.) at 4° C. The resuspended cells were homogenized using a Polytron (Brinkman, Westbury, N.Y.) at setting 6 for 10 sec., then centrifuged at 48,000×g for 10 min. The resulting pellet was washed by repeating the resuspension, homogenization and centrifugation steps. The final pellet was resuspended in buffer at 4° C. to yield a total protein concentration of 5 mg/ml, then aliquots were frozen in liquid nitrogen for further storage at −70° C. Immediately before carrying out a binding assay, an aliquot of cell homogenate was thawed and diluted to a concentration of 100 μg/ml in assay buffer consisting of 50 mM HEPES pH 5.0 and 0.1% CHAPSO. Assays were initiated in polypropylene 96-well plates (Costar, Cambridge, Mass.) by the addition of 200 μl of cell homogenate to 50 μl of assay buffer containing 1 nM radioligand (WO 2004 013098, compound 3, where the methoxy group is substituted for C(^3H)3: 80 Ci/mMol) and various concentrations of unlabelled compounds, and incubated for 1.5 hr. at 25° C. Separation of bound from free radioligand was by filtration on GFF glass fiber filters (Innotech Biosystems International, Lansing, Mich.) using an Innotech cell harvester.

[1] = displacement of 1 nM tritiated radioligand, HEK293-9B.A1 homogenate, pH 5.0, 1.5 hr at 25° C., read-out: Activity Rating (activity based on IC50 values)

SMILES	IC50 [1]	IC50
CO/N=C(\C)c1cc(C(=O)N[C@@H](Cc2cc(F)cc(F)c2)[C@H](O)CNCc2cccc(OC)c2)cc(N(c2ccccc2)S(C)(=O)=O)c1 [Example 38, N-((2S,3R)-4-(3-methoxybenzylamino)-1-(3,5-difluorophenyl)-3-hydroxybutan-2-yl)-3-((E)-1-(methoxyimino)ethyl)-5-(N-phenylmethan-10-ylsulfonamido)benzamide]	< 0.1 µM	
COc1cccc(CNC[C@@H](O)[C@H](Cc2cc(F)cc(F)c2)NC(=O)c2cc(/C(C)=N/OCc3ccccc3)cc(N(c3ccccc3)S(C)(=O)=O)c2)c1 [Example 39, N-((2S,3R)-4-(3-methoxybenzylamino)-1-(3,5-difluorophenyl)-3-hydroxybutan-2-yl)-3-((E)-1-(benzyloxyimino)ethyl)-5-(N-phenylmethan-10-ylsulfonamido)benzamide]	< 0.1 µM	
COc1cccc(CNC[C@@H](O)[C@H](Cc2cc(F)cc(F)c2)NC(=O)c2cc(C(C)O)cc(N(c3ccccc3)S(C)(=O)=O)c2)c1 (stereo partly drawn) [Example 40, N-((2S,3R)-4-(3-methoxybenzylamino)-1-(3,5-difluorophenyl)-3-hydroxybutan-2-yl)-3-(1-hydroxyethyl)-5-(N-phenylmethan-10-ylsulfonamido)benzamide]	< 0.1 µM	
COc1cccc(CNC[C@@H](O)[C@H](Cc2cc(F)cc(F)c2)NC(=O)c2cc(/C(C)=N/OCC(C)C)cc(N(c3ccccc3)S(C)(=O)=O)c2)c1 [Example 41, N-((2S,3R)-4-(3-methoxybenzylamino)-1-(3,5-difluorophenyl)-3-hydroxybutan-2-yl)-3-((E)-1-(isobutoxyimino)ethyl)-5-(N-phenylmethan-10-ylsulfonamido)benzamide]	0.1 to 1 µM	
C=CCO/N=C(\C)c1cc(C(=O)N[C@@H](Cc2cc(F)cc(F)c2)[C@H](O)CNCc2cccc(OC)c2)cc(N(c2ccccc2)S(C)(=O)=O)c1 [Example 42, N-((2S,3R)-4-(3-methoxybenzylamino)-1-(3,5-difluorophenyl)-3-hydroxybutan-2-yl)-3-((E)-1-(allyloxyimino)ethyl)-5-(N-phenylmethan-10-ylsulfonamido)benzamide]	< 0.1 µM	
CCCO/N=C(\C)c1cc(C(=O)N[C@@H](Cc2cc(F)cc(F)c2)[C@H](O)CNCc2cccc(OC)c2)cc(N(c2ccccc2)S(C)(=O)=O)c1 [Example 43, N-((2S,3R)-4-(3-methoxybenzylamino)-1-(3,5-difluorophenyl)-3-hydroxybutan-2-yl)-3-(N-phenylmethan-10-ylsulfonamido)-5-((E)-1-(propoxyimino)ethyl)benzamide]	< 0.1 µM	
COc1cccc(CNC[C@@H](O)[C@H](Cc2cc(F)cc(F)c2)NC(=O)c2cc(C(C)=O)cc(C(=O)N[C@H](C)c3ccccc3)c2)c1 [Example 44, N^1-((2S,3R)-4-(3-methoxybenzylamino)-1-(3,5-difluorophenyl)-3-hydroxybutan-2-yl)-5-acetyl-N^3-((R)-1-phenylethyl)isophthalamide TFA salt]	< 0.1 µM	
COc1cccc(CNC[C@@H](O)[C@H](Cc2cc(F)cc(F)c2)NC(=O)c2cc(C(=O)N[C@H](C)c3ccccc3)cc(C(C)O)c2)c1 (stereo partly drawn) [Example 45, N^1-((2S,3R)-4-(3-methoxybenzylamino)-1-(3,5-difluorophenyl)-3-hydroxybutan-2-yl)-5-(1-hydroxyethyl)-N^3-((R)-1-phenylethyl)isophthalamide TFA salt]		< 0.1 µM
C=CCO/N=C(/C)c1cc(C(=O)N[C@@H](Cc2cc(F)cc(F)c2)[C@H](O)CNCc2cccc(OC)c2)cc(C(=O)N[C@H](C)c2ccccc2)c1 [Example 46, N^1-((2S,3R)-4-(3-methoxybenzylamino)-1-(3,5-difluorophenyl)-3-hydroxybutan-2-yl)-5-((Z)-1-(allyloxyimino)ethyl)-N^3-((R)-1-phenylethyl)isophthalamide TFA salt]		< 0.1 µM
COc1cccc(CNC[C@@H](O)[C@H](Cc2cc(F)cc(F)c2)NC(=O)c2cc(C(C)=O)cc(C(=O)NC(C)c3ccc(F)cc3)c2)c1 (stereo partly drawn) [Example 47, N^1-((2S,3R)-4-(3-methoxybenzylamino)-1-(3,5-difluorophenyl)-3-hydroxybutan-2-yl)-5-acetyl-N^3-(1-(4-fluorophenyl)ethyl)isophthalamide TFA salt]	< 0.1 µM	
COc1cccc(CNC[C@@H](O)[C@H](Cc2cc(F)cc(F)c2)NC(=O)c2cc(C(=O)NC(C)c3ccc(F)cc3)cc(C(C)O)c2)c1 (stereo partly drawn) [Example 48, N^1-((2S,3R)-4-(3-methoxybenzylamino)-1-(3,5-difluorophenyl)-3-hydroxybutan-2-yl)-N^3-(1-(4-fluorophenyl)ethyl)-5-(1-hydroxyethyl)isophthal-amide TFA salt]	< 0.1 µM	
C=CCO/N=C(/C)c1cc(C(=O)NC(C)c2ccc(F)cc2)cc(C(=O)N[C@@H](Cc2cc(F)cc(F)c2)[C@H](O)CNCc2cccc(OC)c2)c1 (stereo partly drawn) [Example 49, N^1-((2S,3R)-4-(3-methoxybenzylamino)-1-(3,5-difluorophenyl)-3-hydroxybutan-2-yl)-5-((Z)-1-(allyloxyimino)ethyl)-N^3-(1-(4-fluorophenyl)ethyl)isophthalamide TFA salt]	0.1 to 1 µM	
CO/N=C(/C)c1cc(C(=O)NC(C)c2ccc(F)cc2)cc(C(=O)N[C@@H](Cc2cc(F)cc(F)c2)[C@H](O)CNCc2cccc(OC)c2)c1 (stereo partly drawn) [Example 50, N^1-((2S,3R)-4-(3-methoxybenzylamino)-1-(3,5-difluorophenyl)-3-hydroxybutan-2-yl)-N^3-(1-(4-fluorophenyl)ethyl)-5-((Z)-1-(methoxyimino)ethyl)isophthalamide TFA salt]	< 0.1 µM	
